These results are taken from patent US11702422B2, “Imidazopyridazines as modulators of IL-17” (Janssen Pharmaceutica NV, priority 2020, dated 2023).

The structures appear in SMILES notation.

In test [1] the target is IL-17A(FLAG-Tagged): IL-17RA(His-Tagged) (Homo sapiens, UniProt Q16552, K93Q). The test can be described thus: IL-17A(FLAG-Tagged): IL-17RA(His-Tagged) Binding Disruption Eu-HTRF Assay. The note with it: IL-17A/IL-17RA binding disruption, simple average if tested more than once. Summed up: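 IC50 comes from a one-site competition fit of the HTRF 665/620 nm ratio. Compound dilutions (2-fold, 22 points) were held 1 h rt with FLAG-tagged IL-17A dimer, then His-tagged IL-17RA plus Eu-cryptate anti-FLAG and D2 anti-His antibodies were added for 2 h rt.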
Chain of UniProt Q16552 (Q16552 with tags, fused parts or gaps K93Q): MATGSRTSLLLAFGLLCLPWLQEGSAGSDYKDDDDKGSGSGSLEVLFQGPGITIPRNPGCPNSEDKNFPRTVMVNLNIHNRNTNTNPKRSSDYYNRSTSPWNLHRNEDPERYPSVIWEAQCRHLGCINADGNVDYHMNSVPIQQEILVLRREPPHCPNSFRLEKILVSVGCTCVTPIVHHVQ
In general terms: TR-FRET usually uses a lanthanide donor and a delayed reading to cut background.

For test [2], the system named is IL-17A-induced G-CSF production in human normal keratinocyte (NHK). The experiment in a line: NHK Assay: IL-17A-induced G-CSF production in human normal keratinocytes. The note with it: adult normal human keratinocytes, IL-17A 5 ng/mL, 24 h, simple average if tested more than once. It is filed as cell-based. Summed up:
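Adult normal human keratinocytes were seeded at 3000-4000 cells/well. Recombinant human IL-17A was pre-incubated 1 h at rt with titrated compound, then added to cells (final 5 ng/mL IL-17A, 0.2% DMSO, 5% FBS) for 24 h at 37° C. Supernatant G-CSF was measured by HTRF against a standard curve to give IC50.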

Broadly, the IC50 is the point on the concentration scale where inhibition reaches its midpoint. A higher IC50 goes with a need for much substance. As for `Cc1nocc1C(=O)N[C@H](c1cn2ncc([C@H](NC(=O)CC(C)C(F)(F)F)C3CC3)cc2n1)C1CCC(F)(F)CC1` (single isomer, unassigned) [Example 124, N—((S)-(7-((R)-Cyclopropyl((S*)-4,4,4-trifluoro-3-methylbutanamido)methyl)imidazo[1,2-b]pyridazin-2-yl)(4,4-difluorocyclohexyl)methyl)-3-methylisoxazole-4-carboxamide], the IC50 stood at 110 nM in test [1] and 690 nM in test [2].
With `CCC(F)(F)CC(=O)N[C@@H](c1cnn2cc([C@@H](NC(=O)c3nonc3C)C3CCC(F)(F)CC3)nc2c1)C1CC1` [Example 338, N—((S)-(7-((R)-Cyclopropyl(3,3-difluoropentanamido)methyl)imidazo[1,2-b]pyridazin-2-yl)(4,4-difluorocyclohexyl)methyl)-4-methyl-1,2,5-oxadiazole-3-carboxamide], the IC50 was 360 nM in test [1] and 2000 nM in test [2] (Homo sapiens, Keratinocyte).
Taken in the same sequence, the figures for `O=C(CCC(F)(F)F)N[C@@H](c1cnn2cc([C@@H](NC(=O)c3conc3OCC(F)F)C3CCC(F)(F)CC3)nc2c1)C1CC1` [Example 285, N—((S)-(7-((R)-Cyclopropyl(4,4,4-trifluorobutanamido)methyl)imidazo[1,2-b]pyridazin-2-yl)(4,4-difluorocyclohexyl)methyl)-3-(2,2-difluoroethoxy)isoxazole-4-carboxamide] were 120 nM and 340 nM.
In the case of `Cc1nonc1C(=O)N[C@H](c1cn2ncc([C@H](NC(=O)[C@@]34C[C@@H]3[C@@H](F)C4)C3CC3)cc2n1)C1CCC(F)(F)CC1` (relative stereo) [Example 341, N—((S)-(7-((R)-Cyclopropyl((1R*,3S*,4S*)-3-fluorobicyclo[2.1.0]pentane-1-carboxamido)methyl)imidazo[1,2-b]pyridazin-2-yl)(4,4-difluorocyclohexyl)methyl)-4-methyl-1,2,5-oxadiazole-3-carboxamide], the IC50 in test [1] is 4800 nM; in test [2] (Homo sapiens, Keratinocyte) it was greater than 20000 nM.
Take `CC(n1nccc1C(=O)N[C@H](c1cn2ncc([C@H](NC(=O)CCC(F)(F)F)C3CC3)cc2n1)C1CCC(F)(F)CC1)C(F)(F)F` (single isomer, unassigned) [Example 115, N—((S)-(7-((R)-Cyclopropyl(4,4,4-trifluorobutanamido)methyl)imidazo[1,2-b]pyridazin-2-yl)(4,4-difluorocyclohexyl)methyl)-1-((R*)-1,1,1-trifluoropropan-2-yl)-1H-pyrazole-5-carboxamide]: the half-inhibitory concentration (IC50) in test [1] is 190 nM; in test [2] (Homo sapiens, Keratinocyte), 140 nM.
Taken in the same sequence, the figures for `O=C(CC1CC(F)(F)C1)N[C@@H](c1cnn2cc([C@@H](NC(=O)c3nonc3N3CCC3)C3CCC(F)(F)CC3)nc2c1)C1CC1` [Example 386, 4-(Azetidin-1-yl)-N—((S)-(7-((R)-cyclopropyl(2-(3,3-difluorocyclobutyl)acetamido)methyl)imidazo[1,2-b]pyridazin-2-yl)(4,4-difluorocyclohexyl)methyl)-1,2,5-oxadiazole-3-carboxamide] were 69 nM and 230 nM.
With `CCC(NC(=O)CC1CC(F)(F)C1)c1cnn2cc([C@@H](NC(=O)c3nonc3C)C3CCC(F)(F)CC3)nc2c1` (single isomer, unassigned) [Example 509, N—((S)-(7-((S*)-1-(2-(3,3-Difluorocyclobutyl)acetamido)propyl)imidazo[1,2-b]pyridazin-2-yl)(4,4-difluorocyclohexyl)methyl)-4-methyl-1,2,5-oxadiazole-3-carboxamide], the concentration for half-maximal inhibition (IC50) is 1900 nM in test [1] and greater than 20000 nM in test [2] (Homo sapiens, Keratinocyte).
For the molecule `O=C(CCC(F)(F)F)N[C@@H](c1cnn2cc([C@@H](NC(=O)c3ncn(CCC(F)(F)F)n3)C3CCC(F)(F)CC3)nc2c1)C1CC1` [Example 33, N—((S)-(7-((R)-Cyclopropyl(4,4,4-trifluorobutanamido)methyl)imidazo[1,2-b]pyridazin-2-yl)(4,4-difluorocyclohexyl)methyl)-1-(3,3,3-trifluoropropyl)-1H-1,2,4-triazole-3-carboxamide], the IC50 in test [1] was 4500 nM; in test [2] (Homo sapiens, Keratinocyte), greater than 20000 nM.
As for `CC(C)c1oncc1C(=O)N[C@H](c1cn2ncc([C@H](NC(=O)CCC(F)(F)F)C3CC3)cc2n1)C1CCC(F)(F)CC1` [Example 232, N—((S)-(7-((R)-Cyclopropyl(4,4,4-trifluorobutanamido)methyl)imidazo[1,2-b]pyridazin-2-yl)(4,4-difluorocyclohexyl)methyl)-5-isopropylisoxazole-4-carboxamide], the IC50 was 43 nM in test [1] and 65 nM in test [2] (Homo sapiens, Keratinocyte).
Taken in the same sequence, the figures for `N#CC12CC(Cn3ncc(C(=O)N[C@H](c4cn5ncc([C@H](NC(=O)CCC(F)(F)F)C6CC6)cc5n4)C4CCC(F)(F)CC4)n3)(C1)C2` [Example 146, 2-((3-Cyanobicyclo[1.1.1]pentan-1-yl)methyl)-N—((S)-(7-((R)-cyclopropyl(4,4,4-trifluorobutanamido)methyl)imidazo[1,2-b]pyridazin-2-yl)(4,4-difluorocyclohexyl)methyl)-2H-1,2,3-triazole-4-carboxamide] were 680 nM and 710 nM.
In the case of `COc1nonc1C(=O)N[C@H](c1cn2ncc([C@H](NC(=O)CC3CC(F)(F)C3)C3CC3)cc2n1)C1CCC(F)(F)CC1` [Example 409, N—((S)-(7-((R)-Cyclopropyl(2-(3,3-difluorocyclobutyl)acetamido)methyl)imidazo[1,2-b]pyridazin-2-yl)(4,4-difluorocyclohexyl)methyl)-4-methoxy-1,2,5-oxadiazole-3-carboxamide], the IC50 in test [1] was determined as 85 nM; in test [2] (Homo sapiens, Keratinocyte) it was 140 nM.
With `Cc1nonc1C(=O)N[C@H](c1cn2ncc([C@H](NC(=O)C(F)C3CC3)C3CC3)cc2n1)C1CCC(F)(F)CC1` (single isomer, unassigned) [Example 332, N—((S)-(7-((R)-Cyclopropyl((S*)-2-cyclopropyl-2-fluoroacetamido)methyl)imidazo[1,2-b]pyridazin-2-yl)(4,4-difluorocyclohexyl)methyl)-4-methyl-1,2,5-oxadiazole-3-carboxamide], the figures for the IC50 in test [1] and in test [2] were 1500 nM and 12000 nM, respectively.
In the case of `CC(C)n1nccc1C(=O)N[C@H](c1cn2ncc(C(NC(=O)CC3CC(F)(F)C3)C3CCOCC3)cc2n1)C1CCC(F)(F)CC1` (single isomer, unassigned) [Example 535, N—((S)-(7-((R*)-1-(2-(3,3-Difluorocyclobutyl)acetamido)(tetrahydro-2H-pyran-4-yl)methyl)imidazo[1,2-b]pyridazin-2-yl)(4,4-difluorocyclohexyl)methyl)-1-isopropyl-1H-pyrazole-5-carboxamide], the 50% inhibitory concentration (IC50) in test [1] stood at 440 nM; in test [2] (Homo sapiens, Keratinocyte), 89 nM.
For `O=C(CCC(F)(F)F)N[C@@H](c1cnn2cc([C@@H](NC(=O)c3cnn(CCF)n3)C3CCC(F)(F)CC3)nc2c1)C1CC1` [Example 107, N—((S)-(7-((R)-Cyclopropyl(4,4,4-trifluorobutanamido)methyl)imidazo[1,2-b]pyridazin-2-yl)(4,4-difluorocyclohexyl)methyl)-2-(2-fluoroethyl)-2H-1,2,3-triazole-4-carboxamide], the IC50 came to 150 nM in test [1] and 970 nM in test [2] (Homo sapiens, Keratinocyte).
For `Cc1cnoc1C(=O)N[C@H](c1cn2ncc([C@H](NC(=O)CCC(F)(F)F)C3CC3)cc2n1)C1CCC(F)(F)CC1` [Example 160, N—((S)-(7-((R)-Cyclopropyl(4,4,4-trifluorobutanamido)methyl)imidazo[1,2-b]pyridazin-2-yl)(4,4-difluorocyclohexyl)methyl)-4-methylisoxazole-5-carboxamide], in that order: 73 nM and 270 nM.
For `CN(C)c1nonc1C(=O)N[C@H](c1cn2ncc([C@H](NC(=O)CC3CC(F)(F)C3)C3CC3)cc2n1)C1CCC(F)(F)CC1` [Example 406, N—((S)-(7-((R)-Cyclopropyl(2-(3,3-difluorocyclobutyl)acetamido)methyl)imidazo[1,2-b]pyridazin-2-yl)(4,4-difluorocyclohexyl)methyl)-4-(dimethylamino)-1,2,5-oxadiazole-3-carboxamide], the IC50 amounted to 77 nM in test [1] and 290 nM in test [2] (Homo sapiens, Keratinocyte).
On to `O=C(CCC(F)(F)F)N[C@@H](c1cnn2cc([C@@H](NC(=O)c3ccnc(OCC(F)F)c3)C3CCC(F)(F)CC3)nc2c1)C1CC1` [Example 179, N—((S)-(7-((R)-Cyclopropyl(4,4,4-trifluorobutanamido)methyl)imidazo[1,2-b]pyridazin-2-yl)(4,4-difluorocyclohexyl)methyl)-2-(2,2-difluoroethoxy)isonicotinamide], for which the IC50 worked out at 45 nM in test [1] and 450 nM in test [2] (Homo sapiens, Keratinocyte).
With `N#CC1(C(NC(=O)CC2CC(F)(F)C2)c2cnn3cc([C@@H](NC(=O)c4nonc4C4CC4)C4CCC(F)(F)CC4)nc3c2)CC1` (single isomer, unassigned) [Example 424, N—((S)-(7-((S*)-(1-Cyanocyclopropyl)(2-(3,3-difluorocyclobutyl)acetamido)methyl)imidazo[1,2-b]pyridazin-2-yl)(4,4-difluorocyclohexyl)methyl)-4-cyclopropyl-1,2,5-oxadiazole-3-carboxamide], the half-maximal inhibitory concentration (IC50) in test [1] was 47 nM; in test [2], 40 nM.
In the case of `N#Cc1ccc(C(=O)N[C@H](c2cn3ncc([C@H](NC(=O)CCC(F)(F)F)C4CC4)cc3n2)C2CCC(F)(F)CC2)cc1` [Example 213, 4-Cyano-N—((S)-(7-((R)-cyclopropyl(4,4,4-trifluorobutanamido)methyl)imidazo[1,2-b]pyridazin-2-yl)(4,4-difluorocyclohexyl)methyl)benzamide], the IC50 came to 450 nM in test [1] and 20000 nM in test [2] (Homo sapiens, Keratinocyte).
